Reference: patent US9169241B2, “Quinolinyloxyphenylsulfonamides” (Max-Planck-Gesellschaft Zur Forderung der Wissenschaften …, priority 2009, dated 2015)
Read-outs that look alike come from different tables or passages of the source.

How the values were obtained:
Format in all cases: cell-based
A172 [1] = experiment: Cell vitality assay (ATP assay, CellTiter-Glo); settings: Homo sapiens, A 172; A172, 72 h; Table IIa; read-out: IC50 ATP-Assay after 72 h A172
In short: (§1)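 ATP-based luminescence (CellTiter-Glo) after 72 h exposure of 1000 cells/well to seven compound concentrations from 0.195 to 12.5 μM. IC50 defined as concentration reducing ATP to 50% of DMSO control.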

C8161 = experiment: Cell vitality assay (ATP assay, CellTiter-Glo); settings: Homo sapiens; C8161, 72 h; Table IIa; read-out: IC50 ATP-Assay after 72 h C8161
In short: as §1

MDA-MB231 = experiment: Cell vitality assay (ATP assay, CellTiter-Glo); settings: Homo sapiens, MDA-MB-231
In short: as §1

SF763 = experiment: Cell vitality assay (ATP assay, CellTiter-Glo); settings: SF763, 72 h; Table IIa; read-out: IC50 ATP-Assay after 72 h SF763
In short: as §1

U138 = experiment: Cell vitality assay (ATP assay, CellTiter-Glo); settings: U138, 72 h; Table IIa; read-out: IC50 ATP-Assay after 72 h U138
In short: as §1

Hs578T = experiment: Apoptosis assay (Cellomics, nucleus condensation); settings: Homo sapiens, Hs-578T, Table III, read-out: Apoptosis induction in Hs578T
In short: (§2)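 5000 cells/well, Hoechst 33342 live stain; cpd 12.5, 6.25, 3.125, 1.56, 0.78, 0.39 μM or DMSO; imaged 24 h + 48 h; nuclear condensation = intensity variation per nucleus; cell number loss noted.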

SF126 [2] = experiment: Apoptosis assay (Cellomics, nucleus condensation); settings: Homo sapiens, SF-126, Table III, read-out: Apoptosis induction in SF126
In short: as §2

U118 [3] = experiment: Apoptosis assay (Cellomics, nucleus condensation); settings: Table III, read-out: Apoptosis induction in U118
In short: as §2

A172 [4] = experiment: Matrigel outgrowth assay/branching assay; settings: Homo sapiens, A 172, Table Vb, read-out: Total branching inhibition in Matrigel A172
In short: (§3)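 Matrigel 3 mg/ml, polymerized 1 h 37° C; 5000 cells/well + cmpd 3.125/1.56/0.78 μM or DMSO. Imaged 48/72/96 h, 5× objective. Positive = total branching block.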

SF126 [5] = experiment: Matrigel outgrowth assay/branching assay; settings: Homo sapiens, SF-126, Table Vb, read-out: Total branching inhibition in Matrigel SF126
In short: as §3

U118 [6] = experiment: Matrigel outgrowth assay/branching assay; settings: Table Vb, read-out: Total branching inhibition in Matrigel U118
In short: as §3

tumor cell = experiment: Matrigel outgrowth assay/branching assay (Table Va)
In short: as §3

cells = experiment: Boyden chamber migration assay (Table VI); settings: Hs578T cells, 16 h migration
In short: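 Migration read-out is a count of fixed cells on the underside of an […] insert membrane after 16 h. Chemoattractant was medium with 10% FCS in the lower chamber; 20000 cells started in serum-free medium with 0.1% BSA above, and those left on top were removed by swab.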

[7] = MDA-MB231, 72 h, Table IIa, read-out: IC50 ATP-Assay after 72 h MDA-MB231
[8] = Homo sapiens, C8161 cells, read-out: Total branching inhibition in Matrigel C8161
[9] = Homo sapiens, Hs-578T, Hs578T cells, read-out: Total branching inhibition in Matrigel Hs578T
[10] = U118 cells, read-out: Total branching inhibition in Matrigel U118
[11] = U138 cells, read-out: Total branching inhibition in Matrigel U138

Row | Compound | IC50 (MDA-MB231; [7]) [µM] | IC50 (Hs578T) [µM] | IC50 (SF126 [2]) [µM] | IC50 (U118 [3]) [µM] | IC50 (tumor cell; [8]) [µM] | IC50 (tumor cell; [9]) [µM] | IC50 (tumor cell; [10]) [µM] | IC50 (tumor cell; [11]) [µM] | IC50 (cells; Homo sapiens, Hs-578T, 16 h) [µM] | IC50 (cells) [µM] | IC50 (A172 [1]) [µM] | IC50 (C8161) [µM] | IC50 (SF763) [µM] | IC50 (U138) [µM] | IC100 (A172 [4]) [µM] | IC100 (SF126 [5]) [µM] | IC100 (U118 [6]) [µM] | IC50 (MDA-MB231; cell vitality assay, MDA-MB231, Table IIc, read-out: IC50 MDA-MB231) [µM]
1 | COc1cc2c(Oc3ccc(NS(=O)(=O)c4cccc(Oc5ccccc5)c4)cc3F)ccnc2cc1OCCCN1CCCCC1 [Example 10, N-{3-Fluoro-4-[6-methoxy-7-(3-piperidin-1-yl-propoxy)-quinolin-4-yloxy]-phenyl}-3-phenoxy-benzenesulfonamide] | ≤ 12.5 | ≤ 12.5 | 12.5 to 50 | ≤ 12.5 | ≤ 5 | ≤ 5 | ≤ 5 | 5 to 50 | ≤ 5 |  | ≤ 12.5 | ≤ 12.5 | ≤ 12.5 | ≤ 12.5 | ≤ 12.5 | ≤ 12.5 | ≤ 12.5 | 
2 | COc1cc2c(Oc3ccc(NS(=O)(=O)c4ccccc4Cl)cc3F)ccnc2cc1OCCCN1CCCC(C)C1 (centres unmarked) [Example 38, 2-Chloro-N-(3-fluoro-4-{6-methoxy-7-[3-(3-methyl-piperidin-1-yl)-propoxy]-quinolin-4-yloxy}-phenyl)-benzenesulfonamide] | ≤ 12.5 | ≤ 12.5 | ≤ 12.5 | ≤ 12.5 | ≤ 5 | ≤ 5 | ≤ 5 | 5 to 50 | 5 to 50 |  | ≤ 12.5 | ≤ 12.5 | ≤ 12.5 | ≤ 12.5 | ≤ 12.5 | ≤ 12.5 | > 12.5 | 
3 | COc1cc2c(Oc3ccc(NS(=O)(=O)c4cc(F)ccc4F)cc3F)ccnc2cc1OCCCN1CCCCC1 [Example 1, 2,5-Difluoro-N-{3-fluoro-4-[6-methoxy-7-(3-piperidin-1-yl-propoxy)-quinolin-4-yloxy]-phenyl}-benzenesulfonamide] | 12.5 to 50 | ≤ 12.5 | ≤ 12.5 | ≤ 12.5 | ≤ 5 | ≤ 5 | ≤ 5 | ≤ 5 |  |  | ≤ 12.5 | 12.5 to 50 | ≤ 12.5 | ≤ 12.5 | ≤ 12.5 | ≤ 12.5 | ≤ 12.5 | ≤ 12.5
4 | COc1cc2c(Oc3ccc(NS(=O)(=O)c4ccccc4C(F)(F)F)cc3F)ccnc2cc1OCCCN1CCCCC1C (centres unmarked) [Example 99, N-(3-Fluoro-4-{6-methoxy-7-[3-(2-methyl-piperidin-1-yl)-propoxy]-quinolin-4-yloxy}-phenyl)-2-trifluoromethyl-benzenesulfonamide] | ≤ 12.5 | ≤ 12.5 | ≤ 12.5 | 12.5 to 50 | 5 to 50 | ≤ 5 | ≤ 5 | ≤ 5 |  |  | ≤ 12.5 | 12.5 to 50 | ≤ 12.5 | ≤ 12.5 | > 12.5 | ≤ 12.5 | ≤ 12.5 | 
5 | COc1cc2c(Oc3ccc(NS(=O)(=O)c4cccc(Oc5ccccc5)c4)cc3F)ccnc2cc1OCCCN1CCN(C)CC1 [Example 14, N-(3-Fluoro-4-{6-methoxy-7-[3-(4-methyl-piperazin-1-yl)-propoxy]-quinolin-4-yloxy}-phenyl)-3-phenoxy-benzenesulfonamide] | ≤ 12.5 | ≤ 12.5 | ≤ 12.5 | 12.5 to 50 | 5 to 50 | 5 to 50 | ≤ 5 | 5 to 50 | ≤ 5 |  |  | ≤ 12.5 | ≤ 12.5 | 12.5 to 50 |  |  | ≤ 12.5 | 
6 | COc1cc2c(Oc3ccc(NS(=O)(=O)c4ccccc4[N+](=O)[O-])cc3F)ccnc2cc1OCCCN1CCCCC1 [Example 7, N-{3-Fluoro-4-[6-methoxy-7-(3-piperidin-1-yl-propoxy)-quinolin-4-yloxy]-phenyl}-2-nitro-benzenesulfonamide] | ≤ 12.5 | ≤ 12.5 |  | 12.5 to 50 | ≤ 5 | 5 to 50 | ≤ 5 | 5 to 50 | ≤ 5 |  | 12.5 to 50 | ≤ 12.5 | ≤ 12.5 | ≤ 12.5 | > 12.5 | ≤ 12.5 | ≤ 12.5 | 
7 | COc1cc2c(Oc3ccc(NS(=O)(=O)c4ccccc4OC)cc3F)ccnc2cc1OCCCN1CCN(C)CC1 [Example 33, N-(3-Fluoro-4-{6-methoxy-7-[3-(4-methyl-piperazin-1-yl)-propoxy]-quinolin-4-yloxy}-phenyl)-2-methoxy-benzenesulfonamide] | ≤ 12.5 | 12.5 to 50 | ≤ 12.5 | 12.5 to 50 | ≤ 5 | ≤ 5 | ≤ 5 | 5 to 50 | ≤ 5 |  |  | ≤ 12.5 | ≤ 12.5 | ≤ 12.5 |  |  |  | 

Further lines, with some results ahead:

Row | IC50 (MDA-MB231; [7]) [µM] | IC50 (Hs578T) [µM] | IC50 (SF126 [2]) [µM] | IC50 (U118 [3]) [µM] | IC50 (tumor cell; [8]) [µM] | IC50 (tumor cell; [9]) [µM] | IC50 (tumor cell; [10]) [µM] | IC50 (tumor cell; [11]) [µM] | IC50 (cells; Homo sapiens, Hs-578T, 16 h) [µM] | IC50 (cells) [µM] | Compound | IC50 (A172 [1]) [µM] | IC50 (C8161) [µM] | IC50 (SF763) [µM] | IC50 (U138) [µM] | IC100 (A172 [4]) [µM] | IC100 (SF126 [5]) [µM] | IC100 (U118 [6]) [µM] | IC50 (MDA-MB231; cell vitality assay, MDA-MB231, Table IIc, read-out: IC50 MDA-MB231) [µM]
8 | 12.5 to 50 | ≤ 12.5 | ≤ 12.5 | ≤ 12.5 | 5 to 50 | ≤ 5 | ≤ 5 | 5 to 50 | ≤ 5 |  | COc1cc2c(Oc3ccc(NS(=O)(=O)c4c(F)cccc4F)cc3F)ccnc2cc1OCCCN1CCOCC1 [Example 77, 2,6-Difluoro-N-{3-fluoro-4-[6-methoxy-7-(3-morpholin-4-yl-propoxy)-quinolin-4-yloxy]-phenyl}-benzenesulfonamide] | ≤ 12.5 | ≤ 12.5 | ≤ 12.5 | ≤ 12.5 | > 12.5 | ≤ 12.5 | ≤ 12.5 | 
9 | 12.5 to 50 | ≤ 12.5 | 12.5 to 50 | ≤ 12.5 | ≤ 5 | ≤ 5 | ≤ 5 | 5 to 50 | ≤ 5 |  | COc1cc2c(Oc3ccc(NS(=O)(=O)c4ccc(F)cc4F)cc3F)ccnc2cc1OCCCN1CCCC(C)C1 (centres unmarked) [Example 47, 2,4-Difluoro-N-(3-fluoro-4-{6-methoxy-7-[3-(3-methyl-piperidin-1-yl)-propoxy]-quinolin-4-yloxy}-phenyl)-benzenesulfonamide] | ≤ 12.5 | 12.5 to 50 | ≤ 12.5 | ≤ 12.5 | > 12.5 | ≤ 12.5 | ≤ 12.5 | 
10 | 12.5 to 50 | ≤ 12.5 | ≤ 12.5 | ≤ 12.5 | ≤ 5 | ≤ 5 | ≤ 5 | 5 to 50 | 5 to 50 | ≤ 5 | COc1cc2c(Oc3ccc(NS(=O)(=O)c4ccccc4C(F)(F)F)cc3Cl)ccnc2cc1OCCCN1CCN(C)CC1 [Example 87, N-(3-Chloro-4-{6-methoxy-7-[3-(4-methyl-piperazin-1-yl)-propoxy]-quinolin-4-yloxy}-phenyl)-2-trifluoromethyl-benzenesulfonamide] | ≤ 12.5 | ≤ 12.5 | ≤ 12.5 | ≤ 12.5 | ≤ 12.5 | ≤ 12.5 | ≤ 12.5 | 
11 | ≤ 12.5 | ≤ 12.5 | ≤ 12.5 | ≤ 12.5 | ≤ 5 | ≤ 5 | 5 to 50 | 5 to 50 | ≤ 5 |  | COc1cc2c(Oc3ccc(NS(=O)(=O)c4ccccc4C(F)(F)F)cc3F)ccnc2cc1OCCCNC1CCOCC1 [Example 95, N-(3-Fluoro-4-{6-methoxy-7-[3-(tetrahydro-pyran-4-ylamino)-propoxy]-quinolin-4-yloxy}-phenyl)-2-trifluoromethyl-benzenesulfonamide] |  | 12.5 to 50 | ≤ 12.5 | ≤ 12.5 |  |  |  | 
